PubChem BioAssay AID2060886 (Molecular Pharmacology Branch, DTP, NCI, 2025)

Test system: 653999-131-R-J2-PDC complex spheroids, growth inhibition
Test: Anticancer human tumor 653999-131-R-J2-PDC patient-derived lung adenocarcinoma cell line growth inhibition [RAS]
Details: for viability, T/C: stronger effect = lower value; active means viability on the fitted dose curve at most 10% of control; inactive means the rest
In short: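 Multi-cell-type spheroids: tumor cells plus HUVEC endothelial cells and mesenchymal stem cells. RAS-pathway inhibitors were combined with targeted agents, each dosed in half-log steps down from clinical Cmax, or from 10 microM when Cmax was unknown.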

[1] = curve of first compound, second compound 0.000949 µM
[2] = curve of first compound, second compound 0.003 µM
[3] = curve of first compound, second compound 0.00949 µM
[4] = curve of first compound, second compound 0.03 µM
[5] = curve of first compound, second compound 0.0949 µM
[6] = curve of first compound, second compound 0.3 µM
[7] = second compound 0.000949 µM, first compound 0.0316 µM
[8] = second compound 0.000949 µM, first compound 0.1 µM
[9] = second compound 0.000949 µM, first compound 0.316 µM
[10] = second compound 0.000949 µM, first compound 1 µM
[11] = second compound 0.000949 µM, first compound 3.16 µM
[12] = second compound 0.000949 µM, first compound 10 µM
[13] = second compound 0.003 µM, first compound 0.0316 µM
[14] = second compound 0.003 µM, first compound 0.1 µM
[15] = second compound 0.003 µM, first compound 0.316 µM
[16] = second compound 0.003 µM, first compound 1 µM
[17] = second compound 0.003 µM, first compound 3.16 µM
[18] = second compound 0.003 µM, first compound 10 µM
[19] = second compound 0.00949 µM, first compound 0.0316 µM
[20] = second compound 0.00949 µM, first compound 0.1 µM
[21] = second compound 0.00949 µM, first compound 0.316 µM
[22] = second compound 0.00949 µM, first compound 1 µM
[23] = second compound 0.00949 µM, first compound 3.16 µM
[24] = second compound 0.00949 µM, first compound 10 µM
[25] = second compound 0.03 µM, first compound 0.0316 µM
[26] = second compound 0.03 µM, first compound 0.1 µM
[27] = second compound 0.03 µM, first compound 0.316 µM
[28] = second compound 0.03 µM, first compound 1 µM
[29] = second compound 0.03 µM, first compound 3.16 µM
[30] = second compound 0.03 µM, first compound 10 µM
[31] = second compound 0.0949 µM, first compound 0.0316 µM
[32] = second compound 0.0949 µM, first compound 0.1 µM
[33] = second compound 0.0949 µM, first compound 0.316 µM
[34] = second compound 0.0949 µM, first compound 1 µM
[35] = second compound 0.0949 µM, first compound 3.16 µM
[36] = second compound 0.0949 µM, first compound 10 µM
[37] = second compound 0.3 µM, first compound 0.0316 µM
[38] = second compound 0.3 µM, first compound 0.1 µM
[39] = second compound 0.3 µM, first compound 0.316 µM
[40] = second compound 0.3 µM, first compound 1 µM
[41] = second compound 0.3 µM, first compound 3.16 µM
[42] = second compound 0.3 µM, first compound 10 µM
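Further: spheroids exposed to the agents for seven days before the readout.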

CCN1CCN(Cc2ccc(Nc3ncc(F)c(-c4cc(F)c5nc(C)n(C(C)C)c5c4)n3)nc2)CC1
inactive: viability, T/C (compound 0.00316 µM) 87.8% [middle of 4 runs] | viability, T/C (compound 0.01 µM) 96.6% [middle of 4 runs] | viability, T/C (compound 0.0316 µM) 73.8% [middle of 4 runs] | viability, T/C (compound 0.316 µM) 80.7% [middle of 4 runs] | viability, T/C (compound 1 µM) 83.8% [middle of 4 runs]
> 1 µM: IC50 (curve of compound)

CCC(CC)c1cc(NC2CCC(N)C2)n2nccc2n1 (centres undefined) + CCn1c(-c2cc(N3CCN(C)CC3)cnc2C(C)OC)c2c3cc(ccc31)-c1csc(n1)CC(NC(=O)C1CC1C)C(=O)N1CCCC(N1)C(=O)OCC(C)(C)C2
1.28 µM: IC50 [1]
0.722 µM: IC50 [2]
< 0.0316 µM: IC50 [4] | IC50 [5] | IC50 [6]
inactive: viability, T/C [7] 84.6% | viability, T/C [8] 101% | viability, T/C [9] 91.2% | viability, T/C [10] 59.9% | viability, T/C [11] 12% | viability, T/C [12] 15% | viability, T/C [13] 59.1% | viability, T/C [14] 88.6% | viability, T/C [15] 84.2% | viability, T/C [16] 39.2% | viability, T/C [17] 10.5% | viability, T/C [18] 18.8% | viability, T/C [19] 55.8% | viability, T/C [20] 56.5% | viability, T/C [21] 45.6% | viability, T/C [22] 26.4% | viability, T/C [23] 16.4% | viability, T/C [24] 17.4% | viability, T/C [25] 38.8% | viability, T/C [26] 51% | viability, T/C [27] 29.6% | viability, T/C [28] 20.4% | viability, T/C [29] 12.5% | viability, T/C [30] 18.8% | viability, T/C [31] 29.3% | viability, T/C [32] 27.8% | viability, T/C [33] 28.9% | viability, T/C [34] 12.1% | viability, T/C [35] 11.7% | viability, T/C [36] 18.9% | viability, T/C [37] 29.8% | viability, T/C [38] 24.9% | viability, T/C [39] 26.4% | viability, T/C [40] 12.7% | viability, T/C [41] 13.3% | viability, T/C [42] 17.5%
0.195 µM: IC50 [3]

NC1c2ccccc2OC12CCN(c1cnc3c(N4CCCc5ncccc54)n[nH]c3n1)CC2 (centres undefined) + CCn1c(-c2cc(N3CCN(C)CC3)cnc2C(C)OC)c2c3cc(ccc31)-c1csc(n1)CC(NC(=O)C1CC1C)C(=O)N1CCCC(N1)C(=O)OCC(C)(C)C2
0.0657 µM: IC50 [2]
> 10 µM: IC50 [1]
< 0.0316 µM: IC50 [3] | IC50 [4] | IC50 [5] | IC50 [6]
active: viability, T/C [34] 7.56% | viability, T/C [35] 5.76% | viability, T/C [36] 6.14% | viability, T/C [39] 7.36% | viability, T/C [40] 6.93% | viability, T/C [41] 7.17% | viability, T/C [42] 4.26%
inactive: viability, T/C [7] 67% | viability, T/C [8] 60.7% | viability, T/C [9] 55.2% | viability, T/C [10] 59.3% | viability, T/C [11] 65.6% | viability, T/C [12] 63.4% | viability, T/C [13] 60.7% | viability, T/C [14] 40.6% | viability, T/C [15] 40.3% | viability, T/C [16] 49.5% | viability, T/C [17] 41.3% | viability, T/C [18] 42.1% | viability, T/C [19] 40.9% | viability, T/C [20] 34% | viability, T/C [21] 28.5% | viability, T/C [22] 33.9% | viability, T/C [23] 24.7% | viability, T/C [24] 24% | viability, T/C [25] 24.1% | viability, T/C [26] 20.3% | viability, T/C [27] 12.9% | viability, T/C [28] 9.46% | viability, T/C [29] 12.2% | viability, T/C [30] 11.1% | viability, T/C [31] 17.6% | viability, T/C [32] 17% | viability, T/C [33] 12.7% | viability, T/C [37] 16.5% | viability, T/C [38] 10.2%

Cc1nc(N2CCC3(CC2)COC(C)C3N)c(CO)nc1Sc1ccnc(N)c1Cl (centres undefined) + CCn1c(-c2cc(N3CCN(C)CC3)cnc2C(C)OC)c2c3cc(ccc31)-c1csc(n1)CC(NC(=O)C1CC1C)C(=O)N1CCCC(N1)C(=O)OCC(C)(C)C2
inactive: viability, T/C [7] 80.8% | viability, T/C [8] 91.1% | viability, T/C [9] 76.1% | viability, T/C [10] 80.9% | viability, T/C [11] 64.2% | viability, T/C [12] 76.8% | viability, T/C [13] 60.9% | viability, T/C [14] 47.7% | viability, T/C [15] 64% | viability, T/C [16] 54.8% | viability, T/C [17] 47% | viability, T/C [18] 54.1% | viability, T/C [19] 43.1% | viability, T/C [20] 34.9% | viability, T/C [21] 37.4% | viability, T/C [22] 41.1% | viability, T/C [23] 24.6% | viability, T/C [24] 29.7% | viability, T/C [25] 36.7% | viability, T/C [26] 30.2% | viability, T/C [27] 21% | viability, T/C [28] 19.1% | viability, T/C [29] 17.3% | viability, T/C [30] 15.9% | viability, T/C [31] 21.4% | viability, T/C [32] 27.6% | viability, T/C [33] 14.4% | viability, T/C [34] 14.2% | viability, T/C [35] 11% | viability, T/C [36] 11.9% | viability, T/C [37] 23.4% | viability, T/C [38] 18.5% | viability, T/C [39] 20% | viability, T/C [40] 12.7% | viability, T/C [41] 10.1%
< 0.0316 µM: IC50 [3] | IC50 [4] | IC50 [5] | IC50 [6]
> 10 µM: IC50 [1] | IC50 [2]
active: viability, T/C [42] 7.03%

C[C@@H](NC(=O)c1ncnc(N)c1Cl)c1ncc(C(=O)Nc2cc(C(F)(F)F)c(Cl)cn2)s1 + C#Cc1c(F)ccc2cc(O)cc(-c3ncc4c(N5CC6CCC(C5)N6)nc(OCC56CCCN5CC(F)C6)nc4c3F)c12
< 0.0316 µM: IC50 (curve of first compound, second compound 3.16 µM) | IC50 (curve of first compound, second compound 10 µM)
inactive: viability, T/C (second compound 0.0316 µM, first compound 0.0316 µM) 102% | viability, T/C (second compound 0.0316 µM, first compound 0.1 µM) 109% | viability, T/C (second compound 0.0316 µM, first compound 0.316 µM) 102% | viability, T/C (second compound 0.0316 µM, first compound 1 µM) 100% | viability, T/C (second compound 0.0316 µM, first compound 3.16 µM) 100% | viability, T/C (second compound 0.0316 µM, first compound 10 µM) 73.5% | viability, T/C (second compound 0.1 µM, first compound 0.0316 µM) 91% | viability, T/C (second compound 0.1 µM, first compound 0.1 µM) 91.6% | viability, T/C (second compound 0.1 µM, first compound 0.316 µM) 90% | viability, T/C (second compound 0.1 µM, first compound 1 µM) 78.3% | viability, T/C (second compound 0.1 µM, first compound 3.16 µM) 71% | viability, T/C (second compound 0.1 µM, first compound 10 µM) 77.2% | viability, T/C (second compound 0.316 µM, first compound 0.0316 µM) 77.2% | viability, T/C (second compound 0.316 µM, first compound 0.1 µM) 75% | viability, T/C (second compound 0.316 µM, first compound 0.316 µM) 87.8% | viability, T/C (second compound 0.316 µM, first compound 1 µM) 75% | viability, T/C (second compound 0.316 µM, first compound 3.16 µM) 88.3% | viability, T/C (second compound 0.316 µM, first compound 10 µM) 69.1% | viability, T/C (second compound 1 µM, first compound 0.0316 µM) 44.5% | viability, T/C (second compound 1 µM, first compound 0.1 µM) 68.3% | viability, T/C (second compound 1 µM, first compound 0.316 µM) 72.5% | viability, T/C (second compound 1 µM, first compound 1 µM) 44.6% | viability, T/C (second compound 1 µM, first compound 3.16 µM) 60.1% | viability, T/C (second compound 1 µM, first compound 10 µM) 54.7% | viability, T/C (second compound 3.16 µM, first compound 0.0316 µM) 40.3% | viability, T/C (second compound 3.16 µM, first compound 0.1 µM) 39.7% | viability, T/C (second compound 3.16 µM, first compound 0.316 µM) 37% | viability, T/C (second compound 3.16 µM, first compound 1 µM) 44.9% | viability, T/C (second compound 3.16 µM, first compound 3.16 µM) 51.5% | viability, T/C (second compound 3.16 µM, first compound 10 µM) 41.8% | viability, T/C (second compound 10 µM, first compound 0.0316 µM) 22% | viability, T/C (second compound 10 µM, first compound 0.1 µM) 21.2% | viability, T/C (second compound 10 µM, first compound 0.316 µM) 49.3% | viability, T/C (second compound 10 µM, first compound 1 µM) 45.9% | viability, T/C (second compound 10 µM, first compound 3.16 µM) 30.5% | viability, T/C (second compound 10 µM, first compound 10 µM) 22%
> 10 µM: IC50 (curve of first compound, second compound 0.0316 µM) | IC50 (curve of first compound, second compound 0.1 µM) | IC50 (curve of first compound, second compound 0.316 µM) | IC50 (curve of first compound, second compound 1 µM)
